Assays:
Format in all cases: cell-based
U87MG MTAP(-/-) cells = assay: Inhibition of proliferation of U87MG MTAP(-/-) cells (CellTiter-Glo); settings: cell proliferation, 6 days
Procedure: Test 7: Assay for Inhibitory Activity of Compounds against U87MG MTAP(-/-) Cell Proliferation
Materials and Cells: The U87MG MTAP(-/-) cell line was purchased from ATCC (USA). Cell culture media, fetal bovine serum (FBS), and penicillin-streptomycin were purchased from Thermo Fisher Scientific (USA). 384-well plates were purchased from PerkinElmer (USA). The CellTiter-Glo assay kit was purchased from Promega (USA).
Cell Culture: U87MG MTAP(-/-) cells were cultured in a medium supplemented with 10% fetal bovine serum (FBS) and 1% penicillin-streptomycin at 37°C with 5% CO2. Only cells in the logarithmic growth phase were used for experiments.
Cell Proliferation Inhibition Assay: The antiproliferative activity of the compounds against U87MG MTAP(-/-) cells was assessed using the CellTiter-Glo assay kit. Cell suspensions were adjusted to the appropriate density and seeded into 384-well plates at a volume of 40 µL per well, then incubated overnight at 37°C with 5% CO2. Compounds (40 nL) were added to each well to achieve final concentrations ranging from 0 to 10,000 nM (starting concentration 10,000 nM, 3-fold serial dilutions, 10 dose points), with a final DMSO concentration of […]. The cell plates were incubated at 37°C with 5% CO2 for 6 days. Subsequently, 40 µL of CellTiter-Glo reagent was added to measure cell viability. Paclitaxel was used as a control compound.

[1] = test system: HCT-116 MTAP wild-type cells; assay: Inhibition of proliferation of HCT-116 MTAP wild-type cells (Cell-Titer Glo); settings: 8 days
In short: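 MTAP wild-type HCT-116 cells were seeded, cultured overnight and then exposed to compound from 10,000 nM down in a 10-point, 3-fold series (0.1% DMSO). Plates were incubated 8 days at 37°C, 5% CO2. Proliferation was read by Cell-Titer Glo viability luminescence.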

[2] = test system: HCT-116 MTAP(-/-) deficient cells; assay: Inhibition of proliferation of HCT-116 MTAP(-/-) deficient cells (Cell-Titer Glo); settings: 8 days
In short: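 Cells in log-phase growth, RPMI-1640 with 10% FBS, seeded and left overnight at 37°C, 5% CO2. Compound tested at 0–10,000 nM (10 points, 3-fold, 0.1% DMSO) for 8 days at 37°C, 5% CO2. Viability read by CellTiter-Glo luminescence.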

Compound | IC50 (U87MG MTAP(-/-) cells; Homo sapiens, U-87 MG, 144 h) | IC50 ([1]; Homo sapiens, HCT-116, 192 h) | IC50 ([2]; Homo sapiens, HCT-116, 192 h) | IC50 (U87MG MTAP(-/-) cells) | IC50 [1] | IC50 [2]
4-amino-N-methyl-N-(6-(trifluoromethyl)-2, 3-dihydrobenzo[b]thi ophen-3-yl)imidazo[1, 5-a]quinoxaline-8-car boxamide [Example 43] | – | – | – | 322 nM | 2990 nM | 22.4 nM
CN(C(=O)c1cc2c(cc1F)nc(N)c1cncn12)[C@@H]1COc2cc(-c3cnn(C(F)(F)F)c3)ccc21 [Example 33, (S)-4-amino-7-fluoro-N-methyl-N-(6-(1-(trifluoromethyl)-1H-pyrazol-4-yl)-2,3-dihydrobenzofuran-3-yl)imid azo[1,5-a]quinoxaline-8-carboxamide] | 81.7 nM | 2660 nM | 15.1 nM | – | – | –
C[C@H]1OC[C@@H](N(C)C(=O)c2cc3c(cn2)nc(N)c2cncn23)c2ccc(C(F)(F)F)nc21 [Example 35, 4-amino-N-methyl-N-((5S,8R)-8-methyl-2-(trifluoromethyl)-5,8-dihydro-6H-pyrano[3,4-b]pyridin-5-yl)imida zo[1,5-a]pyrido[3,4-e] pyrazine-8-carboxamide] | 34.8 nM | 2230 nM | 23.2 nM | – | – | –
COc1ccc2c(c1)OC[C@H]2N(C)C(=O)c1cc2c(cc1F)nc(N)c1cncn12 [Example 80, (S)-4-amino-7-fluoro-N-(6-methoxy-2,3-dihydrobenzofuran-3-yl)-N-methylimidazo[1,5-a]quinoxaline-8-carboxamide] | 376 nM | 9170 nM | 39.3 nM | – | – | –
CN(C(=O)c1cc2c(cc1C(F)(F)F)nc(N)c1cncn12)[C@@H]1COc2cc(C(F)(F)F)ccc21 [Example 36, (S)-4-amino-N-methy 1-7-(trifluoromethyl)-N-(6-(trifluoromethyl) -2,3-dihydrobenzofuran-3-yl)imidazo[1,5-a] quinoxaline-8-carbox amide] | 343 nM | 5130 nM | 36 nM | – | – | –
CN(C(=O)c1ccc2nc(N)c3cncn3c2c1)[C@@H]1COc2cc(S(F)(F)(F)(F)F)ccc21 (single isomer, unassigned) [Example 104] | 28.8 nM | – | – | – | – | –
CN(C(=O)c1ccc2nc(N)c3c(CO)ncn3c2c1)[C@@H]1COc2cc(C(F)(F)F)ccc21 [Example 128, (S)-4-amino-3-(hydroxymethyl)-N-methyl-N-(6-(trifluoromethyl)-2,3-dihydrobenzofuran-3-yl)imidazo[1,5-a]quinoxaline-8-carboxamide] | – | > 10000 nM | 26 nM | – | – | –
Nc1nc2ccc(C(=O)N(C3CC3)C3COc4cc(Br)ccc43)cc2n2cncc12 (stereo not shown) [Example 74, 4-amino-N-(6-bromo-2,3-dihydrobenzofuran-3-yl)-N-cyclopropyl imidazo[1,5-a]quinox aline-8-carboxamide] | – | – | – | – | 5990 nM | 148 nM
Nc1nc2ccc(C(=O)N(C3CC3)C3COc4cc(C(F)(F)F)ccc43)cc2n2cncc12 (stereo not shown) [Example 73, 4-amino-N-cyclopropyl-N-(6-(trifluoromethyl)-2,3-dihydrobenzof uran-3-yl)imidazo[1,5-a]quinoxaline-8-carb oxamide] | – | 4620 nM | 55.5 nM | – | – | –
CN(C(=O)c1cc2c(cc1Cl)nc(N)c1cncn12)[C@@H]1COc2ccc(F)cc21 [Example 63, (S)-4-amino-7-chloro-N-(5-fluoro-2,3-dihydrobenzofuran-3-yl)-N-methylimidazo[1,5-a] quinoxaline-8-carbox amide] | – | 3260 nM | 46.8 nM | – | – | –
CN(C(=O)c1ccc2nc(N)c3cncn3c2c1)[C@@H]1COc2cc(C(F)F)ccc21 [Example 112, (S)-4-amino-N-(6-(difluoromethyl)-2,3-dihydrobenzofuran-3-yl)-N-methylimidazo[1,5-a]quinoxaline-8-carboxamide] | – | > 10000 nM | 338 nM | – | – | –
CN(C(=O)c1cc2c(cc1F)nc(N)c1cncn12)[C@@H]1COc2cc(-c3cscn3)ccc21 [Example 46, (S)-4-amino-7-fluoro-N-methyl-N-(6-(thiazol-4-yl)-2,3-dihydrobenzofuran-3-yl)imidaz o[1,5-a]quinoxaline-8-carboxamide] | – | > 10000 nM | 52.2 nM | – | – | –
CN(C(=O)c1ccc2nc(N)c3cncn3c2c1)[C@@H]1COc2cc(C(N)=O)ccc21 [Example 53, (S)4-amino-N-(6-carbamoyl-2,3-dihydrobenzofuran-3-yl)-N-met hylimidazo[1,5-a]quin oxaline-8-carboxamide] | – | > 10000 nM | > 3000 nM | – | – | –
C[C@@H]1OC[C@@H](N(C)C(=O)c2ccc3nc(N)c4cncn4c3c2)c2cc(F)ccc21 (single isomer, unassigned) [Example 99] | – | 7130 nM | 928 nM | – | – | –
CN(C(=O)c1cc2c(cc1Cl)nc(N)c1cncn12)[C@@H]1COc2cc(C(F)(F)F)ccc21 [Example 27, (S)-4-amino-7-chloro-N-methyl-N-(6-(trifluoromethyl)-2,3-dihydrobenzofuran-3-yl)imi dazo[1,5-a]quinoxaline-8-carboxamide] | – | 842 nM | 4.4 nM | – | – | –
(R)-4-amino-N-methy 1-N-(6-(pentafluoro-16 -sulfaneyl)-2,3-dihydr obenzofuran-3-yl)imi dazo[1,5-a]quinoxalin e-8-carboxamide [Example 103] | – | – | – | – | 6260 nM | 931 nM
CN(C(=O)c1ccc2nc(N)c3cncn3c2c1)[C@@H]1COc2cc(-c3cnn(C)c3)ccc21 [Example 2, (S)-4-amino-N-methy 1-N-(6-(1-methyl-1H-pyrazol-4-yl)-2,3-dihydrobenzofuran-3-yl)i midazo[1,5-a]quinoxa line-8-carboxamide] | – | 6670 nM | 61 nM | – | – | –

Further compounds by falling IC50 ([1]; Homo sapiens, HCT-116, 192 h), results first:

IC50 (U87MG MTAP(-/-) cells; Homo sapiens, U-87 MG, 144 h) | IC50 ([1]; Homo sapiens, HCT-116, 192 h) | IC50 ([2]; Homo sapiens, HCT-116, 192 h) | Compound | IC50 (U87MG MTAP(-/-) cells) | IC50 [1] | IC50 [2]
81.2 nM | 1690 nM | 5.1 nM | CC1OC[C@@H](N(C)C(=O)c2ccc3nc(N)c4cncn4c3c2)c2ccc(-c3cnn(C)c3)cc21 (stereo partly drawn) [Example 22, 4-amino-N-methyl-N-((4S)-1-methyl-7-(1-methyl-1H-pyrazol-4-yl)isochroman-4-yl)i midazo[1,5-a]quinoxa line-8-carboxamide] | – | – | –
– | 1410 nM | 25.7 nM | C[C@H]1OC[C@@H](N(C)C(=O)c2ccc3nc(N)c4cncn4c3c2)c2cnc(C(F)(F)F)cc21 [Example 32, 4-amino-N-methyl-N-((1R,4S)-1-methyl-7-(trifluoromethyl)-3,4-dihydro-1H-pyrano[4,3-c]pyridin-4-yl)imidazo[1,5-a]quinoxaline-8-carboxamide] | – | – | –
101 nM | 1310 nM | 13.5 nM | Cc1cc(-c2ccc3c(c2)OC[C@H]3N(C)C(=O)c2cc3c(cc2F)nc(N)c2cncn23)on1 [Example 119, (S)-4-amino-7-fluoro-N-methyl-N-(6-(3-methylisoxazol-5-yl)-2,3-dihydrobenzofuran-3-yl)imidazo[1,5-a]qui noxaline-8-carboxamide] | – | – | –
91.1 nM | 1260 nM | 6.6 nM | C[C@H]1OC[C@@H](N(C)C(=O)c2ccc3nc(N)c4cncn4c3c2)c2ccc(F)cc21 (single isomer, unassigned) [Example 96] | – | – | –
– | 781 nM | 791 nM | Cc1ncn2c1c(N)nc1ccc(C(=O)N(C3CC3)[C@H]3COc4cc(C(F)(F)F)ccc43)cc12 (single isomer, unassigned) [Example 85] | – | – | –
19.8 nM | 282 nM | 3.5 nM | Cc1cc2nc(N)c3cncn3c2cc1C(=O)N(C)[C@@H]1COc2cc(C(F)(F)F)ccc21 [Example 15, (S)-4-amino-N,7-dime thyl-N-(6-(trifluoromethyl)-2,3-dihydrobenzofuran-3-yl)imidazo[1 ,5-a]quinoxaline-8-car boxamide] | – | – | –
– | 280 nM | 4 nM | CC1OC[C@@H](N(C)C(=O)c2ccc3nc(N)c4cncn4c3c2)c2ccc(C(F)(F)F)cc21 (stereo partly drawn) [Example 5, 4-amino-N-methyl-N-((4S)-1-methyl-7-(trifluoromethyl)isochroman-4-yl)imidazo[1,5-a]quinoxaline-8-carbox amide] | – | – | –
– | 243 nM | 4.2 nM | CC1OC[C@@H](N(C)C(=O)c2cc3c(cn2)nc(N)c2cncn23)c2ccc(Br)cc21 (stereo partly drawn) [Example 17, 4-amino-N-((4S)-7-bromo-1-methylisochroman-4-yl)-N-methyli midazo[1,5-a]pyrido[3,4-e]pyrazine-8-carb oxamide] | – | – | –
10 nM | 145 nM | 3.5 nM | C[C@H]1OC[C@@H](N(C)C(=O)c2ccc3nc(N)c4cncn4c3c2)c2ccc(C(F)(F)F)cc21 (single isomer, unassigned) [Example 106] | – | – | –
14.2 nM | 114 nM | 1.4 nM | C[C@H]1OC[C@@H](N(C)C(=O)c2cc3c(cn2)nc(N)c2cncn23)c2ccc(C(F)(F)F)cc21 (single isomer, unassigned) [Example 98] | – | – | –

Source: patent EP4775208A1, “USE OF PRMT5 INHIBITOR IN TREATMENT OF TUMORS OR CANCERS” (Apeiron Therapeutics (Hong Kong) Ltd., priority 2023, dated 2025)
